System: VEGF-induced retinal vascular leakage
Test: VEGF-induced vascular leakage in a rabbit model of blood-retinal barrier breakdown (ocular fluorophotometry)
Settings: for Inhibition of retinal vascular leakage: single intravitreal injection Day 0, 500 ng rhVEGF165 Day 5, fluorophotometry Day 7, rabbit

CC1(C)O[C@@H]2C[C@H]3[C@@H]4CCC5=CC(=O)C=C[C@]5(C)[C@@]4(F)[C@@H](O)C[C@]3(C)[C@]2(C(=O)CO)O1 [TA, triamcinolone acetonide]
Inhibition of retinal vascular leakage (TA 75 μg): 13% | Inhibition of retinal vascular leakage (TA 400 μg): 96% | inhibition of the VEGF-induced retinal vascular leakage (separate study, TA 75 μg alone): 10%
